One may read the EC50 as the concentration needed to bring the measured effect to its halfway point. For orientation: IC50 means the concentration that gives 50% inhibition. The AC50 is the concentration at which the activity in the assay is half-maximal.

Drawing on ChEMBL document CHEMBL1201862, “PubChem BioAssay data set” (2004), this text covers EC50, IC50 and AC50 for 1 compound.

Calls of active or inactive are those of the source.

The nature of test [1]: luciferase reporter signal suppression in cells – H4 neuroglioma cells, luminescence, dose response (AID 1990). In kind it is functional, cell-based. (A reporter such as luciferase makes a cellular process visible.)
Test [2] can be described thus: Luminescence-based counterscreen assay for KLF5 inhibitors: dose response cell-based high throughput screening assay to identify cytotoxic compounds using the IEC-6 intestinal epithelial cell line. [Related pubchem assays: 1700 (Primary screen.), 1834 (Confirmation screen.), 1858 (Summary AID.), 1905 (Counterscreen.)]. In kind it is functional. Background: A counterscreen serves to expose hits that act by an unwanted route or on another target.

A short description of test [3]: Luminescence Cell-Based Dose Response HTS to Identify Inhibitors of 5'UTR Stem-Loop Driven Prion Protein mRNA Translation in H4 Neuroglioblastoma Cells. [Related pubchem assays: 1827 (Project Summary), 1813 (Primary HTS)]. The format is functional.
Test [4] addresses Luciferin 4-monooxygenase (Photinus pyralis, UniProt P08659). Nature of the test: Counter Screen for Luciferase-based Assay Positives. [Related pubchem assays: 620, 618, 411 ].
Test [5] concerns the target T1, Microphthalmia-associated transcription factor (Homo sapiens, UniProt O75030).
T1 sequence (O75030 whole entry): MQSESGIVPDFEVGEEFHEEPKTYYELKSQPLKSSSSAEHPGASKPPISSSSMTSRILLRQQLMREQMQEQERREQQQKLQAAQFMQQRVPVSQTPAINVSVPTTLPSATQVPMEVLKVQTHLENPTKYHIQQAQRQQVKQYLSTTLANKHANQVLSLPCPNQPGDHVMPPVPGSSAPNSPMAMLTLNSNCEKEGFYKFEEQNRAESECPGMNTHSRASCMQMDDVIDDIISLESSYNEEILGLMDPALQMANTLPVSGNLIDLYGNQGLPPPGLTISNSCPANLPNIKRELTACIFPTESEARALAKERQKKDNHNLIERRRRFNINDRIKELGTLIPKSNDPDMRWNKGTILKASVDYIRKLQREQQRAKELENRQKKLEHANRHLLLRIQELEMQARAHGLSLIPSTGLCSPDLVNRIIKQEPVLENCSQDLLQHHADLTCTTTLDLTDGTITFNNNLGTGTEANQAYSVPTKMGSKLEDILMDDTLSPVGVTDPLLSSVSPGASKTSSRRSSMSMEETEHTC
The test is described as follows: reducers of TRPM1 reporter luminescence, concentration series – cell-based, SK-MEL-5, cherry-picked, set 3, MITF inhibitor project, dose response (AID 493073).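 Also: SK-MEL-5 melanoma cells with luciferase driven by the MITF target TRPM1 promoter.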 In kind it is functional.

Test [6] has as its target Glyceraldehyde-3-phosphate dehydrogenase (Homo sapiens, UniProt P04406).
A short description of test [7]: alpha-synuclein stem-loop luciferase translation blockers – H4 neuroglioma cells, luminescence, confirmation (AID 1988). In kind it is functional, cell-based.
Test [8] concerns the target Heat shock protein HSP 90-alpha (Homo sapiens, UniProt P07900). The test is described as follows: Luminescence-based dose response biochemical high throughput screening assay for inhibitors of the Heat Shock Protein 90 (HSP90). [Related pubchem assays: 1831 (Summary AID.), 1846 (Confirmation screen.), 1789 (Primary screen.)].
The next test deals with Jurkat. The test is described as follows: blockers of NF-kB activation in T cells – Jurkat, luciferase reporter, luminescence, B- and T-cell, dose response (AID 489004).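 Also: NF-kB luciferase reporter Jurkat cells stimulated with PMA plus ionomycin.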 In kind it is functional, cell-based. As to conditions: Homo sapiens.
The nature of test [9]: HEK-293T viability loss, compound-treated – cell-based, uHTS hits, cytotoxicity control for B/T-cell NF-kB inhibitor project, dose response (AID 489019).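 Also: IC50 reflects cytotoxicity as loss of cell viability.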 In kind it is functional.
Test [10] has as its target T2, Heat shock factor protein 1 (Mus musculus, UniProt P38532).
T2 sequence (P38532 whole entry): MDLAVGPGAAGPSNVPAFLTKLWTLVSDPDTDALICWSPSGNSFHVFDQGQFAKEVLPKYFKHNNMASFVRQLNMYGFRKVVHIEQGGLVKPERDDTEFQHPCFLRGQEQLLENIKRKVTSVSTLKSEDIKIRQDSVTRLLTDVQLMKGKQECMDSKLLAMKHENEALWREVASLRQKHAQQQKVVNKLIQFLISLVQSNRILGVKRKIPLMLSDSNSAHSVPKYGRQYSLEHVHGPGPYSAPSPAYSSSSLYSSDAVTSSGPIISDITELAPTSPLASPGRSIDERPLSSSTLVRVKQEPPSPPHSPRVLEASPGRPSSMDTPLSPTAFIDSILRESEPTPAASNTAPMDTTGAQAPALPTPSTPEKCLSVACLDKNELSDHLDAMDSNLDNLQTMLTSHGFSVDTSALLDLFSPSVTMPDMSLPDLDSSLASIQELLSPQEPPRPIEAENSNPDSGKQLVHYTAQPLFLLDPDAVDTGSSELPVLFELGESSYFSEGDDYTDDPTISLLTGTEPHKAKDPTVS
The test is described as follows: decrease of HSF1-responsive luciferase luminescence – cell-based, NIH3T3, dose retest, confirmation (AID 2382).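 Also: NIH3T3 fibroblasts with HSF1-driven luciferase reporter stressed by proteasome inhibitor MG132; luminescence from HSF1-driven luciferase expression after 8 hours of MG132 stress.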 In kind it is functional.

The target of a further test is T3, Leucine aminopeptidase (Plasmodium falciparum 3D7, UniProt Q8IL11).
T3 sequence (Q8IL11 whole entry): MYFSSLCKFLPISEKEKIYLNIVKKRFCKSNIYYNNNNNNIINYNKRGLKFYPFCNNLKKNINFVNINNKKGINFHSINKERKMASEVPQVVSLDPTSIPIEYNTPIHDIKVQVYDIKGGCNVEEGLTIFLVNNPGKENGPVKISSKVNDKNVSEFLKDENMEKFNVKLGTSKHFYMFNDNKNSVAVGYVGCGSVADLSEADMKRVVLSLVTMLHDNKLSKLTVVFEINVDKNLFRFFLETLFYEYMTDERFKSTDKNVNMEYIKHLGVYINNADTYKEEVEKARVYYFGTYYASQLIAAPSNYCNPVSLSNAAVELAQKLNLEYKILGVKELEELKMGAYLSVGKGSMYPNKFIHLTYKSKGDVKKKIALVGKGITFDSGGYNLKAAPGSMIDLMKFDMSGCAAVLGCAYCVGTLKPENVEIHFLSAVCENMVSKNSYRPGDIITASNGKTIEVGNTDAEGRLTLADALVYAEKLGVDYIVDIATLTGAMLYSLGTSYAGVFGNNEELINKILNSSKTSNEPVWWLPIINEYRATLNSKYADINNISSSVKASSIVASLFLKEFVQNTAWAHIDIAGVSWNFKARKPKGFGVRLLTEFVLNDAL
The test is described as follows: P. falciparum M17LAP inhibitors, primary screen, biochemical, fluorogenic H-Leu-NHMec substrate, 1536-well (AID 1619). The format is functional.

For the next test, the system named is HT-1080. Nature of the test: HT1080 cell viability loss – fluorescence readout (AID 620). In kind it is functional, cell-based. As to conditions: Homo sapiens.

Sequence of Glyceraldehyde-3-phosphate dehydrogenase (P04406 whole entry): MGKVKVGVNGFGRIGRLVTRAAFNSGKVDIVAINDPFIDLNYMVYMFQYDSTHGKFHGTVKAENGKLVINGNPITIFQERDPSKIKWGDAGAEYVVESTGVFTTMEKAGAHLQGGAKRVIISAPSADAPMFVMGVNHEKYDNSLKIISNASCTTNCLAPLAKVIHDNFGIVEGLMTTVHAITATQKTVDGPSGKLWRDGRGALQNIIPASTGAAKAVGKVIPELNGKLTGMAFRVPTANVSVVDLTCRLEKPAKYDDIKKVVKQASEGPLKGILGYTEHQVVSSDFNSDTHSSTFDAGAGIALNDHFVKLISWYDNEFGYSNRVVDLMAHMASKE
Sequence of Luciferin 4-monooxygenase (P08659 whole entry): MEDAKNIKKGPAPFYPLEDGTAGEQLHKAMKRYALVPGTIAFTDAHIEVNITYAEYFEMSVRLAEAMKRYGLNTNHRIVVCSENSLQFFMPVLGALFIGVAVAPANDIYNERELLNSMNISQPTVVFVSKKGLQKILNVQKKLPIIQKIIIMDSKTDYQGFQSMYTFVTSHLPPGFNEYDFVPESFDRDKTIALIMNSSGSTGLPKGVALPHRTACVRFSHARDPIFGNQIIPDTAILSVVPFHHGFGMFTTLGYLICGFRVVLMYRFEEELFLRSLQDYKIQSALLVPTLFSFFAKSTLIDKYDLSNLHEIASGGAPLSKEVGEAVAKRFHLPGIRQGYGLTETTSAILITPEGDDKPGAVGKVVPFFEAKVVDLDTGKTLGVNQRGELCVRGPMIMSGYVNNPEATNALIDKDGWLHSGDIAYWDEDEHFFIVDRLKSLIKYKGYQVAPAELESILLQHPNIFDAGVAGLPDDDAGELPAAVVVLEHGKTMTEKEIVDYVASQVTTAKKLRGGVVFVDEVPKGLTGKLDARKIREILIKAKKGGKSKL

Consider `O=C(O)CSCC(=O)Nc1ccc(C2CCCCC2)cc1`, for which the EC50 in [1] was 0.101 µM (active); in test [3] it was 0.395 µM (active); in test [4], 3.61 µM (active); in [7] it was 2.2 µM (active); in [10], 0.415 µM (active); in the test with HT-1080 it was > 50 µM (not active). The IC50 in test [2] was > 39.8 µM (not active); in test [6] it was > 100 µM (not active); in test [8], > 60 µM (not active); with Jurkat, 0.26 µM (active); in [9], > 80 µM (inactive); on Leucine aminopeptidase it was 12.6 µM (active). The AC50 in test [5] was 2.12 µM (active).
